Source: patent US20260327242A1, “Platform and Scaffold for FAP Targeting Agents” (Erasmus University Medical Center Rotterdam, priority 2022, published 2026)

Tests used:
U-87 cells = experiment: Cytotoxicity assay in FAP+ U-87 cells (resazurin); assay type: cell-based; conditions: FAP+ U-87 cells, single dose of eFAP-18 (1 μM) compared with the parent drug DM1
Procedure: In 96-well plates, U-87 cells (3×10^3) were seeded in each well and incubated at 37° C. and 5% CO2 for 24 h. The medium was removed and the wells were washed once with PBS. The cytotoxic drug (positive control) or the eFAP conjugate containing the drug were prepared at various concentrations (i.e., 1, 10, 100, 1000 nM) in DMEM culture medium, supplemented with 2 mM L-glutamine, 10% FBS, 50 units/mL penicillin, and 50 μg/mL streptomycin. Medium was used as a negative control. Cells were incubated with 100 μL of the tested compounds for 1, 24, 48, and 72 h. After incubation, medium was removed and each well was washed once with PBS. Next, 100 μL of 10% resazurin solution in culture medium was added to each well and incubated for 2.5 h. Fluorescence measurements were carried out using a microplate reader at 544 nm excitation and 590 nm emission.

human FAP (hFAP) = molecular target: T1, human FAP (hFAP) (Homo sapiens, UniProt Q12884); experiment: In vitro inhibition assay on human FAP (Z-GP-AMC substrate); assay type: biochemical; conditions: 20 μM Z-GP-AMC, 20 nM FAP, pH 7.4, room temperature
T1 sequence (Q12884 26-760 limits assumed): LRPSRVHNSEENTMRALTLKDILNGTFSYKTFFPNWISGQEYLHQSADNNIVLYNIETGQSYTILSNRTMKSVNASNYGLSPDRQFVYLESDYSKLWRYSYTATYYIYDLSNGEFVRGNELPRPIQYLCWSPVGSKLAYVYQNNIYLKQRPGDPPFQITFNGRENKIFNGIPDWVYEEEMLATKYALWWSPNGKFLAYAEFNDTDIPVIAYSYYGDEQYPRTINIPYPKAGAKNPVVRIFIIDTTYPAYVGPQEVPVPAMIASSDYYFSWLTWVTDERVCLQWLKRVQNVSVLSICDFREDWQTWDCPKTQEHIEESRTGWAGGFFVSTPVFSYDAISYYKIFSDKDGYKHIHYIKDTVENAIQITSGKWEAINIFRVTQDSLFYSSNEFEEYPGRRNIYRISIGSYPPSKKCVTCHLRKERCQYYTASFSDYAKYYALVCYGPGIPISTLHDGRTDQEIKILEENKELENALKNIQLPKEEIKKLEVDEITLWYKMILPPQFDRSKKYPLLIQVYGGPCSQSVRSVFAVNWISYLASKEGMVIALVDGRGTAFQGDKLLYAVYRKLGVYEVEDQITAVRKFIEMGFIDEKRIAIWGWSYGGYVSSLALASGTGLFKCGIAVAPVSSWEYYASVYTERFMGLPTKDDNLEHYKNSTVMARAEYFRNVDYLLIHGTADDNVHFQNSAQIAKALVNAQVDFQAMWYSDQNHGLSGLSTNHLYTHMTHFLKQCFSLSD
Procedure: (§1) Enzymatic activity of human FAP (hFAP) and mouse FAP (mFAP) on the Z-GP-AMC substrate was measured at room temperature on a Hidex microplate reader by monitoring the fluorescence at an excitation wavelength of 360 nm and an emission wavelength of 465 nm. The reaction mixture contained 20 μM substrate, 20 nM FAP, assay buffer (50 mM Tris, 100 mM NaCl, 1 mM EDTA, pH 7.4) and tested compound (serial dilution from 10-6 to 10^−12) in a total volume of 50 μL.

mouse FAP (mFAP) = molecular target: T2, mouse FAP (mFAP) (Mus musculus, UniProt P97321); experiment: In vitro inhibition assay on mouse FAP (Z-GP-AMC substrate); assay type: biochemical; conditions: 20 μM Z-GP-AMC, 20 nM FAP, pH 7.4, room temperature
T2 sequence (P97321 26-761 limits assumed): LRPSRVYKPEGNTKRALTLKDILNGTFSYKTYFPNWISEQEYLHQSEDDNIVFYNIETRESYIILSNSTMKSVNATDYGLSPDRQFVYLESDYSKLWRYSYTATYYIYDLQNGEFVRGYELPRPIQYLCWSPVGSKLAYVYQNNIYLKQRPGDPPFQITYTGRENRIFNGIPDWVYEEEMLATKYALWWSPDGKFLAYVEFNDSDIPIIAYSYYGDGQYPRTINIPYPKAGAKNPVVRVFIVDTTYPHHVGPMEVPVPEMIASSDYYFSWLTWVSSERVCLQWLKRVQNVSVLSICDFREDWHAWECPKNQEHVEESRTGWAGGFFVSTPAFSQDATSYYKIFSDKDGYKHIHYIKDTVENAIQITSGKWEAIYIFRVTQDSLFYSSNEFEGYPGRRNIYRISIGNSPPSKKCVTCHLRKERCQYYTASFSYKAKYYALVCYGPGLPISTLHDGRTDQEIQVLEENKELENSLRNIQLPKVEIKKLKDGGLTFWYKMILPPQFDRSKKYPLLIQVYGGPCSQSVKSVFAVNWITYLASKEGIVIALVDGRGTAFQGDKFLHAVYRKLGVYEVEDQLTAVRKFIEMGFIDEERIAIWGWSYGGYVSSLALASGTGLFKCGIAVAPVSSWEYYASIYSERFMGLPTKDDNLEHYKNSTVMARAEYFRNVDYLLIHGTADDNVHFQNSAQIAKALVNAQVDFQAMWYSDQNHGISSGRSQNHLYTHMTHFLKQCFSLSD
Procedure: as §1
Results with FAPI-46 obtained in the same assay is included for comparison.

COc1cc2cc(c1Cl)N(C)C(=O)C[C@H](OC(=O)[C@H](C)N(C)C(=O)CCS)[C@]1(C)O[C@H]1[C@H](C)[C@@H]1C[C@@](O)(NC(=O)O1)[C@H](OC)/C=C/C=C(\C)C2 [DM1, Mertansine, reference compound]
cell viability (U-87 cells): 40%

N#C[C@@H]1CC(F)(F)CN1C(=O)CNC(=O)c1ccnc2c(OCCCNC(=O)CCC(C(=O)O)N3CCN(CC(=O)O)CCN(CC(=O)O)CCN(CC(=O)O)CC3)cccc12 (stereo partly drawn) [eFAP-8, 2,2′,2″-(10-(1-Carboxy-4-((3-((4-((2-((S)-2-cyano-4,4-difluoropyrrolidin-1-yl)-2-oxoethyl)carbamoyl)quinolin-8-yl)oxy)propyl)amino)-4-oxobutyl)-1,4,7,10-tetraazacyclododecane-1,4,7-triyl)triacetic acid]
IC50 (human FAP (hFAP)): 1.5 ± 0.2 nM | IC50 (mouse FAP (mFAP)): 1.1 ± 0.4 nM

N#C[C@@H]1CC(F)(F)CN1C(=O)CNC(=O)c1ccnc2c(OCCCNC(=O)C3CCC(CNC(=O)CN4CCN(CC(=O)O)CCN(CC(=O)O)CCN(CC(=O)O)CC4)CC3)cccc12 (stereo partly drawn) [eFAP-9, 2,2′,2″-(10-(2-(((4-((3-((4-((2-((S)-2-Cyano-4,4-difluoropyrrolidin-1-yl)-2-oxoethyl)carbamoyl)quinolin-8-yl)oxy)propyl)carbamoyl)cyclohexyl)methyl)amino)-2-oxoethyl)-1,4,7,10-tetraazacyclododecane-1,4,7-triyl)triacetic acid]
IC50 (human FAP (hFAP)): 2.9 ± 0.6 nM | IC50 (mouse FAP (mFAP)): 2.3 ± 0.3 nM

N#C[C@@H]1CC(F)(F)CN1C(=O)CNC(=O)c1ccnc2c(OCCCNC(=O)CN3CCC(NC(=O)CN4CCN(CC(=O)O)CCN(CC(=O)O)CCN(CC(=O)O)CC4)CC3)cccc12 [eFAP-10, (S)-2,2′,2″-(10-(2-((1-(2-((3-((4-((2-(2-Cyano-4,4-difluoropyrrolidin-1-yl)-2-oxoethyl)carbamoyl)quinolin-8-yl)oxy)propyl)amino)-2-oxoethyl)piperidin-4-yl)amino)-2-oxoethyl)-1,4,7,10-tetraazacyclododecane-1,4,7-triyl)triacetic acid]
IC50 (human FAP (hFAP)): 2.4 ± 0.7 nM | IC50 (mouse FAP (mFAP)): 2.4 ± 0.7 nM

N#C[C@@H]1CC(F)(F)CN1C(=O)CNC(=O)c1ccnc2c(OCCCNC(=O)CCSc3nnc(SCCC(=O)NCCCOc4cccc5c(C(=O)NCC(=O)N6CC(F)(F)C[C@H]6C#N)ccnc45)c4c3CCCC(OC(=O)NCCCNC(=O)CCC(C(=O)O)N3CCN(CC(=O)O)CCN(CC(=O)O)CCN(CC(=O)O)CC3)CC4)cccc12 (stereo partly drawn) [eFAP-20, 2,2′,2″-(10-(4-((3-((((1,4-bis((3-((3-((4-((2-((S)-2-cyano-4,4-difluoropyrrolidin-1-yl)-2-oxoethyl)carbamoyl)quinolin-8-yl)oxy)propyl)amino)-3-oxopropyl)thio)-5,6,7,8,9,10-hexahydrocycloocta[d]pyridazin-7-yl)oxy)carbonyl)amino)propyl)amino)-1-carboxy-4-oxobutyl)-1,4,7,10-tetraazacyclododecane-1,4,7-triyl)triacetic acid]
IC50 (human FAP (hFAP)): 1.15 nM | IC50 (mouse FAP (mFAP)): 1.11 nM

CC1(C)C(=CC=C2CCCC(C=CC3=[N+](CCCCS(=O)(=O)[O-])c4ccc(S(=O)(=O)O)cc4C3(C)C)=C2Oc2ccc(S(=O)(=O)O)cc2)N(CCCCCC(=O)NCC(O)CC(=O)NCC(O)CC(=O)NCCCOc2cccc3c(C(=O)NCC(=O)N4CC(F)(F)C[C@H]4C#N)ccnc23)c2ccc(S(=O)(=O)O)cc21 (stereo partly drawn) [eFAP-24, 2-((E)-2-((E)-3-(2-((E)-1-(6-((4-((4-((3-((4-((2-((S)-2-cyano-4,4-difluoropyrrolidin-1-yl)-2-oxoethyl)carbamoyl)quinolin-8-yl)oxy)propyl)amino)-2-hydroxy-4-oxobutyl)amino)-2-hydroxy-4-oxobutyl)amino)-6-oxohexyl)-3,3-dimethyl-5-sulfonatoindolin-2-ylidene)ethylidene)-2-(4-sulfonatophenoxy)cyclohex-1-en-1-yl)vinyl)-3,3-dimethyl-1-(4-sulfonatobutyl)-3H-indol-1-ium-5-sulfonate]
IC50 (human FAP (hFAP)): 3.04 ± 0.18 nM | IC50 (mouse FAP (mFAP)): 2.96 ± 0.15 nM

CC1(C)C(/C=C/C2=C(Oc3ccc(S(=O)(=O)O)cc3)C(=C/C=C3/N(CCCCCC(=O)NCC(O)CC(=O)NCCCOc4cccc5c(C(=O)NCC(=O)N6CC(F)(F)C[C@H]6C#N)ccnc45)c4ccc(S(=O)(=O)O)cc4C3(C)C)/CCC2)=[N+](CCCCS(=O)(=O)[O-])c2ccc(S(=O)(=O)O)cc21 (stereo partly drawn) [eFAP-27, 4-(2-((E)-2-((E)-3-(2-((E)-1-(6-((4-((3-((4-((2-((S)-2-cyano-4,4-difluoropyrrolidin-1-yl)-2-oxoethyl)carbamoyl)quinolin-8-yl)oxy)propyl)amino)-2-hydroxy-4-oxobutyl)amino)-6-oxohexyl)-3,3-dimethyl-5-sulfoindolin-2-ylidene)ethylidene)-2-(4-sulfophenoxy)cyclohex-1-en-1-yl)vinyl)-3,3-dimethyl-5-sulfo-3H-indol-1-ium-1-yl)butane-1-sulfonate]
IC50 (human FAP (hFAP)): 4.01 ± 0.28 nM | IC50 (mouse FAP (mFAP)): 3.72 ± 0.11 nM

N#C[C@@H]1CC(F)(F)CN1C(=O)CNC(=O)c1ccnc2c(OCCCNC(=O)CCSCC(=O)N3CN(C(=O)CSCCC(=O)NCCCOc4cccc5c(C(=O)NCC(=O)N6CC(F)(F)C[C@H]6C#N)ccnc45)CN(C(=O)Cn4nnc5c4CC[C@H]4[C@@H](CC5)[C@H]4COC(=O)NCCNC(=O)CCC(C(=O)O)N4CCN(CC(=O)O)CCN(CC(=O)O)CCN(CC(=O)O)CC4)C3)cccc12 (stereo partly shown) [eFAP-34]
IC50 (human FAP (hFAP)): 1.8 nM

N#C[C@@H]1CC(F)(F)CN1C(=O)CNC(=O)c1ccnc2c(OCCCNC(=O)CCCCCSCC(=O)N3CN(C(=O)CSCCCCCC(=O)NCCCOc4cccc5c(C(=O)NCC(=O)N6CC(F)(F)C[C@H]6C#N)ccnc45)CN(C(=O)Cn4nnc5c4CC[C@@H]4[C@H](CC5)[C@@H]4COC(=O)NCCNC(=O)CCC(C(=O)O)N4CCN(CC(=O)O)CCN(CC(=O)O)CCN(CC(=O)O)CC4)C3)cccc12 (stereo partly shown) [eFAP-35]
IC50 (human FAP (hFAP)): 1.7 nM

N#C[C@@H]1CC(F)(F)CN1C(=O)CNC(=O)c1ccnc2c(OCCCNC(=O)CCOCCOCCNCC(=O)N3CN(C(=O)CNCCOCCOCCC(=O)NCCCOc4cccc5c(C(=O)NCC(=O)N6CC(F)(F)C[C@H]6C#N)ccnc45)CN(C(=O)Cn4nnc5c4CC[C@H]4[C@@H](CC5)[C@H]4COC(=O)NCCNC(=O)CCC(C(=O)O)N4CCN(CC(=O)O)CCN(CC(=O)O)CCN(CC(=O)O)CC4)C3)cccc12 (stereo partly shown) [eFAP-36]
IC50 (human FAP (hFAP)): 0.35 nM
